Assay results reported in ChEMBL document CHEMBL2163210, “Aryl Piperazinyl Ureas as Inhibitors of Fatty Acid Amide Hydrolase (FAAH) in Rat, Dog, and Primate” (ACS Med Chem Lett, 2012).
pIC50: −log10 of the molar value. Activity calls are given as the source filed them. The rule behind the calls is not given here.

What was measured:
[1] = target: T1, Fatty-acid amide hydrolase 1 (Rattus norvegicus, UniProt P97612)
T1 sequence (P97612 whole entry): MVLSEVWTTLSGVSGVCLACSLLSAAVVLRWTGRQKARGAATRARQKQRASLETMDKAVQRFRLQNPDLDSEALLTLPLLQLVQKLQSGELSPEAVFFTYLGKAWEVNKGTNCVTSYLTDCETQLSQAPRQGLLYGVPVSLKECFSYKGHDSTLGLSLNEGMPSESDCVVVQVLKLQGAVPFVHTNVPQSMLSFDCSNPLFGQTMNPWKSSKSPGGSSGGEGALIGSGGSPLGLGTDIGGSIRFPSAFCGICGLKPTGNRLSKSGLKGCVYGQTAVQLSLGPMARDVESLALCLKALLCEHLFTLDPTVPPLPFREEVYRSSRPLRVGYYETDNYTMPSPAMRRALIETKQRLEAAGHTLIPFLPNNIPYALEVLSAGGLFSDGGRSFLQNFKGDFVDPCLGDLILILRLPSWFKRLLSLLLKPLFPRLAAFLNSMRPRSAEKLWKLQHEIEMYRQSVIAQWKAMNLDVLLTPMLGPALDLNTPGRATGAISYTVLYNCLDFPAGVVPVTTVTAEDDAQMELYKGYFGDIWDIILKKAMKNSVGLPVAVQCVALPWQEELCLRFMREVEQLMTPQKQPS
Description: Inhibition of rat FAAH after 1 hr

[2] = target: T2, Fatty-acid amide hydrolase 1 (Homo sapiens, UniProt O00519); test: Inhibition of human FAAH after 1 hr
T2 sequence (O00519 whole entry): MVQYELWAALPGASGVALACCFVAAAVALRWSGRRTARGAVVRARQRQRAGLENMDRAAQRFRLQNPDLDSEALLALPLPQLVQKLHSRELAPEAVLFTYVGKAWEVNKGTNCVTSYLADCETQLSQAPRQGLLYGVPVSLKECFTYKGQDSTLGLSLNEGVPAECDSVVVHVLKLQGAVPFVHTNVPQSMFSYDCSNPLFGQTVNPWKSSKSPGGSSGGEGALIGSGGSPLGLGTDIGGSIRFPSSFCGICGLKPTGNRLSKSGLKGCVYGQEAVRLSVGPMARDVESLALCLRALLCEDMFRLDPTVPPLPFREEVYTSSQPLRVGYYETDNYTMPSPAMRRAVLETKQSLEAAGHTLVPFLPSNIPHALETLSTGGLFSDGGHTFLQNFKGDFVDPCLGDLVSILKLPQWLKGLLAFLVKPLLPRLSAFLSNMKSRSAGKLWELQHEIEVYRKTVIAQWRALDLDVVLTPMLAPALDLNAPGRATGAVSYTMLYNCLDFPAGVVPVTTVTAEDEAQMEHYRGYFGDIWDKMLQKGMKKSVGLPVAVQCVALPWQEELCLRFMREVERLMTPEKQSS

[3] = species on record: Rattus norvegicus; settings: 3 mg/kg
Description: Inhibition of FAAH in rat at 3 mg/kg, po at 48 hrs

[4] = species on record: Rattus norvegicus; settings: 3 mg/kg; remark: listed apart in the source
Description: Inhibition of FAAH in rat at 3 mg/kg, po at 24 hrs

[5] = Solubility of the compound in deionized water; type: physicochemical
[6] = target: T2, Fatty-acid amide hydrolase 1; test: Inhibition of human FAAH
[7] = target: T1, Fatty-acid amide hydrolase 1; test: Inhibition of rat FAAH

Row | pIC50 [1] | pIC50 [2] | Compound | further results
1 | 5.25 | 6.08 | O=C(Nc1ccccc1)N1CCN(Cc2cccc(Cl)c2)CC1 | –
2 | < 5.00 | < 5.00 | O=C(Nc1ccccc1)N1CCN(Cc2ccccc2)CC1 | –
3 | < 5.00 | 5.55 | O=C(Nc1ccccc1)N1CCN(Cc2ccc(Oc3ccccc3)cc2)CC1 | –
4 | – | 6.31 | COc1ccc(CN2CCN(C(=O)Nc3ccccc3)CC2)cc1 | –
5 | 6.28 | 7.82 | O=C(Nc1ccncc1)N1CCN(Cc2cccc(Oc3ccc(Cl)cc3)c2)CC1 | –
6 | – | – | O=C(Nc1cccnc1)N1CCN(Cc2cccc(Oc3ccc(Cl)cc3)c2)CC1 | inhibition [3]: inactive; inhibition [4]: inactive
7 | – | – | Cl.O.O=C(Nc1cccnc1)N1CCN(Cc2cccc(Oc3ccc(Cl)cc3)c2)CC1 | solubility [5]: > 20 mg/mL
8 | 5.12 | 5.33 | N#Cc1ccc(CN2CCN(C(=O)Nc3ccccc3)CC2)cc1 | –
9 | 6.08 | 6.46 | O=C(Nc1ccccc1)N1CCN(Cc2cccc(C(F)(F)F)c2)CC1 | –
10 | 6.59 | 7.30 | O=C(Nc1ccccc1)N1CCN(Cc2ccc(C(F)(F)F)cc2)CC1 | –
11 | 6.88 | 7.92 | COc1ccc(Oc2cccc(CN3CCN(C(=O)Nc4ccccc4)CC3)c2)cc1 | –
12 | < 5.00 | 5.33 | O=C(Nc1ccccc1)N1CCN(Cc2ccccc2Cl)CC1 | –
13 | – | – | COc1cc(Br)cc(CN2CCN(C(=O)Nc3ccccc3)CC2)c1O | pIC50 [6]: 6.92; pIC50 [7]: 6.61
